According to ChEMBL document CHEMBL2375317, “Heterocyclic bismuth carboxylates based on a diphenyl sulfone scaffold: synthesis and antifungal activity against Saccharomyces cerevisiae” (Eur J Med Chem, 2013):

Test system: Saccharomyces cerevisiae
Assay: Antifungal activity against Saccharomyces cerevisiae W303-1A at 30 mM after 48 hrs
Format: functional, organism-based

Point of comparison: “10-Chloro-2-tert-butylphenothiabismine 5,5-dioxide”, inhibition zone (IZ) 0 mm. Against it:
- 10-(N-Phthalylglycyloxy)phenothiabismine 5,5-dioxide — higher, 12 mm
- 10-(Azulene-6-carboxy)phenothiabismine 5,5-dioxide — higher, 12 mm
- 10-(Azulene-1-carboxy)phenothiabismine 5,5-dioxide — higher, 11 mm
- 10-(1,3-Dichloroazulene-2-carboxy)phenothiabismine 5,5-dioxide — higher, 13 mm
- 10-Chloro-2-phenylphenothiabismine 5,5-dioxide — the same, 0 mm
- 10-(Indol-3-acetoxy)phenothiabismine 5,5-dioxide — higher, 13 mm
- 10-(4-Acetoxybenzoyloxy)phenothiabismine 5,5-dioxide — higher, 17 mm
- 10-(Azulene-2-carboxy)phenothiabismine 5,5-dioxide — higher, 14 mm
- 10-(9-Anthranoyloxy)phenothiabismine 5,5-dioxide — higher, 14 mm
- 10-(2-Acetoxybenzoyloxy)phenothiabismine 5,5-dioxide — higher, 12 mm
- 10-(1-Naphthoyloxy)phenothiabismine 5,5-dioxide — higher, 13 mm
- 10-(Benzoyloxy)phenothiabismine 5,5-dioxide — higher, 17 mm
- 10-(p-tolyl)benzo[b][1,4]benzothiabismine 5,5-dioxide — the same, 0 mm
- 10-chlorobenzo[b][1,4]benzothiabismine 5,5-dioxide — higher, 18 mm
- 10-(2-Naphthoyloxy)phenothiabismine 5,5-dioxide — higher, 12 mm
- 10-(1,3-Dibromoazulene-2-carboxy)phenothiabismine 5,5-dioxide — higher, 12 mm
- 10-(Nicotinoyloxy)phenothiabismine 5,5-dioxide — higher, 14 mm
- 10-(4-Aminobenzoyloxy)phenothiabismine 5,5-dioxide — higher, 15 mm
- tert-butyl-[2-[tert-butyl(dimethyl)silyl]oxy-10-chloro-5,5-dioxo-benzo[b][1,4]benzothiabismin-8-yl]oxy-dimethyl-silane — the same, 0 mm
- 10-(Cinnamoyloxy)phenothiabismine 5,5-dioxide — higher, 14 mm
- 10-(4-Nitrobenzoyloxy)phenothiabismine 5,5-dioxide — higher, 17 mm
- 2,8-Dihydroxy-10-chlorophenothiabismine 5,5-dioxide — higher, 8 mm
